Results published in ChEMBL document CHEMBL4152185, “Therapeutic potential of songorine, a diterpenoid alkaloid of the genus Aconitum” (Eur J Med Chem, 2018).

How the values were obtained:
Rattus norvegicus = assay: Antiarrhythmic activity in iv dosed aconitine-induced rat arrhythmia model administered 3 to 5 mins prior to aconitine challenge by electrocardiographic method; format: functional
[1] = Acute toxicity in iv dosed rat; format: organism-based; settings: in vivo
[2] = Antiarrhythmic index, ratio of LD50 for iv dosed rat to ED50 for antiarrhythmic activity in iv dosed aconitine-induced rat arrhythmia model; format: toxicity, organism-based; settings: in vivo, read-out: Ratio LD50/ED50

Compound | ED50 (Rattus norvegicus) | LD50 [1] | selectivity ratio [2]
C=C1[C@H]2C[C@@]3([C@@H]1O)[C@@H](CC2=O)[C@@]12[C@@H](OC(C)=O)CC[C@@]4(C)CN(CC)[C@@H]1[C@@H]3C[C@H]42 | 15 mg/kg | 150 mg/kg | 10
C=C1[C@H]2C[C@@]3([C@@H]1OC(C)=O)[C@@H](CC2=O)[C@@]12[C@@H](OC(C)=O)CC[C@@]4(C)CN(CC)[C@@H]1[C@@H]3C[C@H]42 | 18 mg/kg | 131 mg/kg | 7.3
C=C1[C@H]2C[C@@]3([C@@H]1O)[C@@H](CC2=O)[C@@]12[C@@H](OC(=O)c4ccccc4)CC[C@@]4(C)CN(CC)[C@@H]1[C@@H]3C[C@H]42 | 0.38 mg/kg | 41 mg/kg | 108
C=C1[C@H]2C[C@@]3([C@@H]1O)[C@@H](CC2=O)[C@]12[C@@H]4C[C@H]3[C@H]1N(CC)C[C@]4(C)CC[C@@H]2O [SONGORINE] | 7.3 mg/kg | 142 mg/kg | 19
